System: Human Umbilical Vein Endothelial Cell (HUVEC)
Test: HUVEC vasculogenesis/angiogenesis assay (HUVEC co-cultured with human fibroblasts, CD31 labeling of vessels)
Type: cell-based
Conditions: for all three vessel parameters relative to the control wells: 11 days, p<0.05, one way ANOVA
Experimental: Studies were conducted to determine the effects of anti-LOXL2 antibody AB0023 in an in vitro vasculogenesis/angiogenesis assay. For this purpose, a dose range of AB0023 was tested alongside VEGF (an angiogenesis promoter), suramin (an angiogenesis inhibitor) and media alone in a HUVECs based in vitro system. The assay was run for 11 days with media changes on days 1, 4, 7 and 9. After 11 days, wells were fixed with 70% ethanol and vessels were tested for expression of CD31, an endothelial marker. Images of 4 random fields per well were taken and the number of branch points, number of vessels and total vessel length was calculated for each well using a specialist software analysis package.
At this point (day 1), fresh endothelial cell growth medium containing the test item and controls, as detailed in Table 1, was added to wells at 0.5 ml per well. Test item and controls were added in duplicate or triplicate according to Table 1, and media-only added in triplicate acted as baseline endothelial growth control. The plate was then cultured at 37° C. and 5% CO2. On days 4, 7 and 9 the medium was removed from all wells and carefully replaced with 0.5 ml of fresh medium containing the test item and controls as detailed in Table 1. On day 11, the plates were fixed and labeled for CD31 as detailed below. On each day of the experiment the plate was visualized using an inverted microscope to ensure normal growth cells and no contamination.
After 11 days, plates were fixed by carefully aspirating medium from wells, washed with 1 ml PBS per well, and then 1 ml ice cold 70% ethanol was added for 30 minutes at room temperature. Fixative was then carefully removed and the wells were incubated with 0.5 ml mouse anti-human CD31 antibody diluted 1:400 in PBS containing 1% BSA and incubated for 60 minutes at 37° C. Wells were then washed three times with 1 ml PBS followed by incubation with 0.5 ml goat anti-mouse IgG alkaline phosphatase conjugated secondary antibody diluted 1:500 in PBS containing 1% BSA for 60 minutes at 37° C. Wells were washed a further three times with 1 ml PBS prior to incubation with 0.5 ml freshly prepared and filtered BCIP/NBT substrate for 10 minutes at 37° C. Wells were then carefully washed three times with 1 ml distilled water and left to air dry overnight.
Digital images of each well were obtained using a Nikon Coolpix camera on a Leica inverted microscope at 10× magnification. Four random fields per well were imaged, producing 96 images in total. Images were then converted to BMP files and imported into an image analysis package to measure the number of vessel branches, number of vessels and total vessel length. This is performed by thresholding the image so that only CD31-stained vessels were detected, which the software then skeletonized to produce single pixel width vessels. From these, individual vessel length, total vessel length and number of vessel branch points were determined. The data were then exported to Excel to calculate mean and standard deviation for each data set. Basic statistics were carried out using a one-way ANOVA.

Row | Compound | number of branches relative to the control group (20 μM suramin, p<0.05 one way ANOVA) | vessel formation relative to control wells (suramin 20 μM (FIG. 2)) | all three vessel parameters relative to the control wells (suramin 20 μM) | branching relative to the control group | vessel formation relative to control wells (VEGF 2 ng/ml (FIG. 4)) | all three vessel parameters relative to the control wells (VEGF 2 ng/ml)
1 | Cc1ccc(C(=O)Nc2ccc(S(=O)(=O)O)c3cc(S(=O)(=O)O)cc(S(=O)(=O)O)c23)cc1NC(=O)c1cccc(NC(=O)Nc2cccc(C(=O)Nc3cc(C(=O)Nc4ccc(S(=O)(=O)O)c5cc(S(=O)(=O)O)cc(S(=O)(=O)O)c45)ccc3C)c2)c1 [Suramin, suramin] | significant reduction | decrease in vessel formation | significant decrease | – | – | –
2 | VEGF | – | – | – | significant increase | increase in vessel formation | increase

From US20110207144A1, “IN VITRO SCREENING ASSAYS” (priority 2009, published 2011)
